Where a name gives a salt, the structure may show the parent alone.
Row | melting point [°C] | Compound
1 | 220 to 222 | COc1ccc(C(=O)Nc2nc3ccc(NS(=O)(=O)O)cc3c(NCc3ccccc3)c2C#N)cc1 (as salt: ammonium) [Example 11, {4-(Benzylamino)-3-cyano-2-[(4-methoxybenzoyl)amino]quinolin-6-yl}sulfamic acid]
2 | 237 to 240 | CNc1ccc2nc(NC(=O)c3ccc(OC)cc3)c(C#N)c(NCc3ccccc3)c2c1 [Example 9, N-{4-(benzylamino)-3-cyano-6-(methylamino)quinolin-2-yl}-4-methoxybenzamide]
3 | 223 to 226 | COc1ccc(C(=O)Nc2nc3ccc(NC=O)cc3c(NCc3cccs3)c2C#N)cc1 [Example 10, N-{3-Cyano-6-(formylamino)-4-[(2-thienylmethyl)amino]quinolin-2-yl]-4-methoxybenzamide]
4 | 228 to 230 | COc1ccc(C(=O)Nc2nc3ccc(N)cc3c(NCc3ccccc3)c2C#N)cc1 [Example 7, N-[6-amino-4-(benzylamino)-3-cyanoquinolin-2-yl]-4-methoxybenzamide]

Source: patent US7547696B2, “Aminoquinoline derivatives and their use as adenosine A3 ligands” (sanofi-aventis, priority 2003, dated 2009)
